The target in assay [1] is Luciferin 4-monooxygenase (Photinus pyralis, UniProt P08659).
Description: GSK_PKIS: Inhibition of Firefly Luciferase (Data from PubChem: AID 652016) [NIH NCATS]
Assay [2] deals with T1, Coelenterazine h 2-monooxygenase (Renilla reniformis, UniProt P27652).
T1 sequence (P27652 whole entry): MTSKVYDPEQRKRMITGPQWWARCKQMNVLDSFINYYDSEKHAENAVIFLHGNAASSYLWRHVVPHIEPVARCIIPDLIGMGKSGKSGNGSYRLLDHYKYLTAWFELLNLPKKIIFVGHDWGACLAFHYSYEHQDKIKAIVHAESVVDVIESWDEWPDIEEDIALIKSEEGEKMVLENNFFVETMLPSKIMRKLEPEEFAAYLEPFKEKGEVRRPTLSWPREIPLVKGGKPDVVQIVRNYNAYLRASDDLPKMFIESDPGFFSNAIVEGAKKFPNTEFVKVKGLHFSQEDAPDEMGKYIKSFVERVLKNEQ
Description: GSK_PKIS: Inhibition of Sea Pansy Luciferase (Data from PubChem: AID 652015) [NIH NCATS]

SMILES strings stand for the structures.

Sequence of Luciferin 4-monooxygenase (P08659 whole entry): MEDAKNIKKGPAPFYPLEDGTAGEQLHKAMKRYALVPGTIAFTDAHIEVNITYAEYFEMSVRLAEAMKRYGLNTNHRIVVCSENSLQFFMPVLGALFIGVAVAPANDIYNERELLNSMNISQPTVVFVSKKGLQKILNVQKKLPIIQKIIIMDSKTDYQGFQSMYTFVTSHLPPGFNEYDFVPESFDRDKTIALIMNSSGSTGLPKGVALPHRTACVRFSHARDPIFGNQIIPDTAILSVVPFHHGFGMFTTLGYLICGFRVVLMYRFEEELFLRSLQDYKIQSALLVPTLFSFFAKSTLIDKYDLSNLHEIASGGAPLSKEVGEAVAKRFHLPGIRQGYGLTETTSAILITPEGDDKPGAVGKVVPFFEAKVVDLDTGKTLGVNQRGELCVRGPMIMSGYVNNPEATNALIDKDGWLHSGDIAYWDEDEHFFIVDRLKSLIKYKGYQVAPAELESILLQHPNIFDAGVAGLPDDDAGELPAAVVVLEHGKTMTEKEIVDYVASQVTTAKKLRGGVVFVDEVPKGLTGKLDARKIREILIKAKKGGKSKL

`O=C1NC(=O)C(c2ccc(Cl)cc2)=C1Nc1ccc(Cl)c(C(=O)O)c1`: the AC50 result in assay [1] and in assay [2] was “Phenotype: Inactive; Curve_Description: None” each time.
Turning to `Fc1ccc(-c2nn3ccccc3c2-c2ccncc2)cc1` [GW434756X], the AC50 in assay [1] (read-out: AC50) was 1.16 µM; in assay [2] (read-out: AC50), 23.1 µM.
As for `COc1cccc(-n2ncc3c(N/N=C/c4ccncc4)ncnc32)c1` [GW784752X], the AC50 in assay [1] (read-out: AC50) is 6.51 µM; in assay [2], “Phenotype: Activator; Curve_Description: None”.
With `Cc1c2ccc(N(C)c3ccnc(Nc4cccc(S(N)(=O)=O)c4)n3)cc2nn1C` [GW771127A], the AC50 in assay [1] (read-out: AC50) stood at 13 µM; in assay [2] (read-out: AC50) it was 18.3 µM.
Take `CNC(=O)c1cncc(/C=C/c2c(C)cccc2C)c1` [GW445012X]: the figures for the AC50 in assay [1] (read-out: AC50) and in assay [2] were 20.6 µM and “Phenotype: Inactive; Curve_Description: None”, respectively.
As for `COc1cc2ncnc(Nc3ccc4c(cnn4Cc4ccccc4)c3)c2cc1OC.Cl` [GW282449A], the AC50 result in assay [1] and in assay [2] was “Phenotype: Inactive; Curve_Description: None” each time.
Take `COc1cc(N2CCN(C(C)C)CC2)ccc1Nc1nc(Nc2cccc(F)c2C(=O)O)c2cc[nH]c2n1` [GSK-1819799A]: the AC50 entry in assay [1] and in assay [2] was “Phenotype: Inactive; Curve_Description: None” in each case.
As to `NS(=O)(=O)c1ccc(NC=C2C(=O)Nc3ccc4ncsc4c32)cc1` [GW589933X], the values for the half-maximal activity concentration (AC50) entry in assay [1] and in assay [2] (read-out: AC50) were “Phenotype: Inactive; Curve_Description: None” and 16.3 µM, respectively.
For `C[C@@H](Oc1cc(-n2cnc3ccc(OC4CCN(C)CC4)cc32)sc1C(N)=O)c1ccccc1Cl` [GSK-579289A] the same measures were “Phenotype: Inactive; Curve_Description: None” and 20.6 µM.
Turning to `Nc1nonc1-c1nc2cnccc2n1C1CC1`, the AC50 entry in assay [1] and in assay [2] was “Phenotype: Inactive; Curve_Description: None” in each case.
For `CS(=O)(=O)CCNCc1ccoc1-c1ccc2ncnc(Nc3ccc(OCc4ccccc4)cc3)c2c1.Cl` [GW568377A], the figures for the half-maximal activity concentration (AC50) in assay [1] (read-out: AC50) and in assay [2] were 20.6 µM and “Phenotype: Inactive; Curve_Description: None”, respectively.
For `COC(=O)Nc1nc2ccc(Oc3ccc(NC(=O)Nc4cc(C(F)(F)F)ccc4F)cc3)cc2s1.Cl` [GW693917A] the same measures were 13 µM and “Phenotype: Inactive; Curve_Description: None”.
In the case of `C#Cc1cccc(Nc2ncnc3ccc(OCCCCNCCS(C)(=O)=O)cc23)c1` [GW680191X], the AC50 result was “Phenotype: Inactive; Curve_Description: None” in assay [1] and 29.1 µM in assay [2] (read-out: AC50).
For `CCS(=O)(=O)c1ccc(OC)c(Nc2ncc(-c3cccc(OC)c3)o2)c1` [GW580509X] the same measures were “Phenotype: Inactive; Curve_Description: None” and 18.3 µM.
Take `O=C(Nc1n[nH]c2nc(-c3ccco3)ccc12)C1CC1`: the AC50 entry in assay [1] and in assay [2] was “Phenotype: Inactive; Curve_Description: None” throughout.
For the molecule `CCn1c(-c2nonc2N)nc2ccccc21` [GW549034X], the concentration at half-maximal activity (AC50) result in assay [1] and in assay [2] was “Phenotype: Inactive; Curve_Description: None” in each case.
Take `Fc1cccc(COc2ccc(Nc3ncncc3C#Cc3ccccc3)cc2Cl)c1` [GW651576X]: the AC50 entry in assay [1] and in assay [2] was “Phenotype: Inactive; Curve_Description: None” each time.
`Cc1nn(C)c2cc(N(C)c3ccnc(Nc4cccc(S(N)(=O)=O)c4)n3)ccc12.Cl` [GW770220A]: the AC50 entry in assay [1] and in assay [2] was “Phenotype: Inactive; Curve_Description: None” in each case.
On to `N#Cc1cccc(Nc2nccc(-c3cnn4ncccc34)n2)c1` [GW778894X], for which the AC50 result in assay [1] and in assay [2] was “Phenotype: Inactive; Curve_Description: None” each time.

For orientation: AC50 means the concentration giving half of the maximal activity seen.

The values are drawn from ChEMBL document CHEMBL2303647, “Data associated with the publication PLoS ONE, 8(3), e57888, (2013) PMID: 23505445. Compounds: GSK PKIS; Assays: NIH NCATS”.
